These results are taken from patent publication US11325936B2, “Sialidase inhibitors and preparation thereof” (The Regents of the University of California, priority 2017, dated 2022).

The target in one test is hNEU2 (Homo sapiens, UniProt Q9Y3R4). In words: Sialidase inhibition assay (Example 7). The test is classed as biochemical. The settings on record: 1 mM of each inhibitor; substrate Neu5Acα2-3GalβpNP 0.3 mM; pH 5.0; read-out: Percentage inhibition (%) against hNEU2.
The target in a further test is T1, AuSialidase (Paenarthrobacter ureafaciens, UniProt Q5W7Q2).
T1 sequence (Q5W7Q2 39-990): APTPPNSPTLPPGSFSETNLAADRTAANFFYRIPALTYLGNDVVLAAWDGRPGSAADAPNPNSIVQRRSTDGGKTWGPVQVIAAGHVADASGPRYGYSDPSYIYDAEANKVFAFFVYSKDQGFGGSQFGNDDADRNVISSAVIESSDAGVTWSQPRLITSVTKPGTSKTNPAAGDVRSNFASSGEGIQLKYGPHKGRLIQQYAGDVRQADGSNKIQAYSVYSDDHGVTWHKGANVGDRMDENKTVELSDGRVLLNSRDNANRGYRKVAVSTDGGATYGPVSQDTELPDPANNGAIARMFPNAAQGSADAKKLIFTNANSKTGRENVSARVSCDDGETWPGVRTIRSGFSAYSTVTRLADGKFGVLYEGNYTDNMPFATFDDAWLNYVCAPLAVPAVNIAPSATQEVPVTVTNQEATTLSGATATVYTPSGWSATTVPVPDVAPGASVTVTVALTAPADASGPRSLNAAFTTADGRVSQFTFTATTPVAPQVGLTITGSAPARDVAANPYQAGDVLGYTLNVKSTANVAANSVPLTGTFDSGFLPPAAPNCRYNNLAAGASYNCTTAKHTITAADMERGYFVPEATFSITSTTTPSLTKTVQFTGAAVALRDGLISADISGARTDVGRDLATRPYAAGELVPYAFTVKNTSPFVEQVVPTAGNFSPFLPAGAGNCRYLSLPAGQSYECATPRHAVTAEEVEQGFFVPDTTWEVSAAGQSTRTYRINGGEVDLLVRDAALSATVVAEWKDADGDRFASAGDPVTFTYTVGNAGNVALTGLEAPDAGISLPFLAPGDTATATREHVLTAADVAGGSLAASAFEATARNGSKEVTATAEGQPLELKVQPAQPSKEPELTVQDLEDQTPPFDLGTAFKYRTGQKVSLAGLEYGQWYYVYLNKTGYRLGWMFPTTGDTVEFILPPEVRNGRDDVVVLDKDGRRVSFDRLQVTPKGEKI
In words: Sialidase inhibition assay (Example 7). The settings on record: 1 mM of each inhibitor; substrate Neu5Acα2-3GalβpNP 0.3 mM; pH 5.5; read-out: Percentage inhibition (%) against AuSialidase. The test is classed as biochemical, Arthrobacter ureafaciens.

The target in test [1] is T2, SpNanB (Streptococcus pneumoniae serotype 4, UniProt Q54727, E68D/K536E/K577E/N393D/S59P). In words: Hydrolysis of 2,7-anhydro-sialic acids by SpNanB. Particulars: SpNanB (1.0 mg/mL); 37° C. for 24 h.
T2 sequence (Q54727 30-697 S59P/E68D/N393D/K536E/K577E): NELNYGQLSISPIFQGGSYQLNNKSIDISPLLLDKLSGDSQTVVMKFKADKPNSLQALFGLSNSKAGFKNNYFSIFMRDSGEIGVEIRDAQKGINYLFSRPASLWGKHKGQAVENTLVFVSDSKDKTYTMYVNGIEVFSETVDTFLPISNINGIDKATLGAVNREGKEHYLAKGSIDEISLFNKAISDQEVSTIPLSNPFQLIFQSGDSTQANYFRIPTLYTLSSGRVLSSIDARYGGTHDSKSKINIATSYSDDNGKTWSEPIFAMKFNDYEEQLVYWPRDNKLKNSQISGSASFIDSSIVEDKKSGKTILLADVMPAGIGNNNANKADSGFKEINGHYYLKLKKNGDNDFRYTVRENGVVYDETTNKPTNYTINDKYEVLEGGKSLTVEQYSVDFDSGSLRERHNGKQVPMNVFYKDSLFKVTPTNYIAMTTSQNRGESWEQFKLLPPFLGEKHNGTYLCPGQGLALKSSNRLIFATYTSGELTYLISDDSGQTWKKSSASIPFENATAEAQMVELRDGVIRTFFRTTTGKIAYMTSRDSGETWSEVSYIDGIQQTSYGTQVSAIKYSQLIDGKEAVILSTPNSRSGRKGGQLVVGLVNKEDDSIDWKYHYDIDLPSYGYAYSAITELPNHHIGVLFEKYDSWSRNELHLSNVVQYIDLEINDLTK
The target of the next test is SpNanC (Streptococcus pneumoniae, UniProt A0A0H2UQE4). The experiment in a line: Sialidase inhibition assay (Example 7). The settings on record: pH 6.5, read-out: Percentage inhibition (%) against SpNanC.
Chain of SpNanC (A0A0H2UQE4 entry or part of it): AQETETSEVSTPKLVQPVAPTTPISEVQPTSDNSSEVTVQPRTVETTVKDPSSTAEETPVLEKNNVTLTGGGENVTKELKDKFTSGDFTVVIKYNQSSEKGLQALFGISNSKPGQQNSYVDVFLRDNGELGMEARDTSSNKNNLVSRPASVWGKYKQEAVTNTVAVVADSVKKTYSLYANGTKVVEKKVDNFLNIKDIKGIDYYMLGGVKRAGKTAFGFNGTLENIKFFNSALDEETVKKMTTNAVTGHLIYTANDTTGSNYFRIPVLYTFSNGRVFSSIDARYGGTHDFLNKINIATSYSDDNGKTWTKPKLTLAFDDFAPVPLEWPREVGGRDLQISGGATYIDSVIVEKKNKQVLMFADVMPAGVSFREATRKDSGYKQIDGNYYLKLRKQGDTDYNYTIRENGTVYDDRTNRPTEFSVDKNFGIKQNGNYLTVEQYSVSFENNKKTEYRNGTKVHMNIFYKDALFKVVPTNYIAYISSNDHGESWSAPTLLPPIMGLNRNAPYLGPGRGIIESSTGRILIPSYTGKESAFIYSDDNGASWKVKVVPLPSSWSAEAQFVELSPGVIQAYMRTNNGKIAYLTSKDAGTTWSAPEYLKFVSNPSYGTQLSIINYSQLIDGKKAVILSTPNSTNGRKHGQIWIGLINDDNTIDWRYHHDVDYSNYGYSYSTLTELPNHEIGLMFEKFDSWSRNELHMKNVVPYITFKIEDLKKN
Another test concerns the target PmST1 (Pasteurella multocida, UniProt Q15KI8). In words: Sialidase inhibition assay (Example 7). The test is classed as biochemical. Particulars: 1 mM of each inhibitor; substrate Neu5Acα2-3GalβpNP 0.3 mM; CMP 0.4 mM; pH 5.5; read-out: Percentage inhibition (%) against PmST1.
The test system of the next test is CpNanI. It counts as biochemical, Clostridium perfringens. Particulars: 1 mM of each inhibitor; substrate Neu5Acα2-3GalβpNP 0.3 mM; pH 5.0.
A further test deals with VcSialidase (Vibrio cholerae serotype O1, UniProt P0C6E9). The experiment in a line: Sialidase inhibition assay (Example 7). The settings on record: pH 5.5, read-out: Percentage inhibition (%) against VcSialidase. It counts as biochemical.
Chain of VcSialidase (P0C6E9 25-781): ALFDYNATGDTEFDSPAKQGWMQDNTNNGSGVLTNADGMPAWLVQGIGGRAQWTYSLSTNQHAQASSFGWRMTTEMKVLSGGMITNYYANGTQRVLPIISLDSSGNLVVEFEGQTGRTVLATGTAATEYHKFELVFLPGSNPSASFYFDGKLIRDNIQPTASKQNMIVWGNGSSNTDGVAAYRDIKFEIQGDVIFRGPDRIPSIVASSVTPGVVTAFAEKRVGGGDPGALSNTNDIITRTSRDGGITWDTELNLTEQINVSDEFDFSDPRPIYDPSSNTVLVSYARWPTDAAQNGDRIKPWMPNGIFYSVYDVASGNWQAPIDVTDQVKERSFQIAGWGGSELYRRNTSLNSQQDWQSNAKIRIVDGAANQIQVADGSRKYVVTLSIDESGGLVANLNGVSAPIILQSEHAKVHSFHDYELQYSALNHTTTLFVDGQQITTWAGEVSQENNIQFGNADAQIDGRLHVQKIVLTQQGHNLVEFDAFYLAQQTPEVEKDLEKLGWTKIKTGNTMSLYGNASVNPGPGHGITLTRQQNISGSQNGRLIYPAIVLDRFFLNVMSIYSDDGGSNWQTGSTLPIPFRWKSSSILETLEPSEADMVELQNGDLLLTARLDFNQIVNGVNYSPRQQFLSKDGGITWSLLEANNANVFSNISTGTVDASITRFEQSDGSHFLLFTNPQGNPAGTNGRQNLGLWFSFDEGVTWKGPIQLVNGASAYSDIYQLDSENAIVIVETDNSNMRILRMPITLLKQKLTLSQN
In another test the target is SpNanA (Streptococcus pneumoniae, UniProt P62575). In words: Sialidase inhibition assay (Example 7). It counts as biochemical. The settings on record: pH 6, read-out: Percentage inhibition (%) against SpNanA.
Chain of SpNanA (P62575 54-1006): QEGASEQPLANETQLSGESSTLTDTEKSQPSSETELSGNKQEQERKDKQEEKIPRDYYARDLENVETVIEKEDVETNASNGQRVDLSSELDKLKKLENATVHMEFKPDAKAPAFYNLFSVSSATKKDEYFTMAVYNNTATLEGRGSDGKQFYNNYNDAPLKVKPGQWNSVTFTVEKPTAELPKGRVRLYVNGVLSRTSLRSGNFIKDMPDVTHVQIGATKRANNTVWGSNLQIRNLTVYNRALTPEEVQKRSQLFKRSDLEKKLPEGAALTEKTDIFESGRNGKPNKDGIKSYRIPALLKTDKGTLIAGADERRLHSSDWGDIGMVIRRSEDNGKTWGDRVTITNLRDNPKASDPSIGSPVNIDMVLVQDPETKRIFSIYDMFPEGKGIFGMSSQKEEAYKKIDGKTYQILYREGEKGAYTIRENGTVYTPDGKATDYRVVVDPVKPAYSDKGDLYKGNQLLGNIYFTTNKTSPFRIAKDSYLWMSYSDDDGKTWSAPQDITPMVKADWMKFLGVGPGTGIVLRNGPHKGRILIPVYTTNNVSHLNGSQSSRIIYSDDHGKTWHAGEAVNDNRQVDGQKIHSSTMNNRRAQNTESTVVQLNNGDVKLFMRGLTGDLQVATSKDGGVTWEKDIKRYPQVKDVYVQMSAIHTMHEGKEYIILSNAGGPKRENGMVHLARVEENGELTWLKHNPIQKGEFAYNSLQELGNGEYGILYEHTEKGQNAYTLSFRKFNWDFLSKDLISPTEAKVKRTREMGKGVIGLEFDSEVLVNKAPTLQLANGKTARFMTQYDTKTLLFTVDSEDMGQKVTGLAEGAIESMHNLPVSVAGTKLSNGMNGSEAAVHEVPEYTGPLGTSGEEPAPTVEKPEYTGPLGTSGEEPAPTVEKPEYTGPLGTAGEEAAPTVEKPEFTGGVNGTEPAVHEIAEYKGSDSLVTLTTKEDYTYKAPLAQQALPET
In a further test the target is BiNanH2 (Bifidobacterium longum subsp. infantis, UniProt A0ACD7UU12). The experiment in a line: Sialidase inhibition assay (Example 7). The test is classed as biochemical. The settings on record: pH 5, read-out: Percentage inhibition (%) against BiNanH2.
Chain of BiNanH2 (A0ACD7UU12 entry or part of it): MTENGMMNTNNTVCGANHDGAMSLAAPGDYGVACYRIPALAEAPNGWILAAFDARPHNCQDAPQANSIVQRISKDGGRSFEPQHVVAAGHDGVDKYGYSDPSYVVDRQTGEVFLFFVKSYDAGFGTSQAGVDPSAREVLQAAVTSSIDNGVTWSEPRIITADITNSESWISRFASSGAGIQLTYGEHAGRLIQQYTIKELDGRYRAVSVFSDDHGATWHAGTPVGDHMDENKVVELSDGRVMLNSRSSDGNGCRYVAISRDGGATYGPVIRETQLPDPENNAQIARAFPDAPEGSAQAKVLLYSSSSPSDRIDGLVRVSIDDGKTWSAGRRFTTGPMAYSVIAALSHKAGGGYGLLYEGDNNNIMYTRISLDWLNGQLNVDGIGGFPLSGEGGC
Test [2] deals with T2, SpNanB. In words: Sialidase inhibition assay (Example 7). Particulars: pH 6, read-out: Percentage inhibition (%) against SpNanB. It counts as biochemical.

Chain of PmST1 (Q15KI8 entry or part of it): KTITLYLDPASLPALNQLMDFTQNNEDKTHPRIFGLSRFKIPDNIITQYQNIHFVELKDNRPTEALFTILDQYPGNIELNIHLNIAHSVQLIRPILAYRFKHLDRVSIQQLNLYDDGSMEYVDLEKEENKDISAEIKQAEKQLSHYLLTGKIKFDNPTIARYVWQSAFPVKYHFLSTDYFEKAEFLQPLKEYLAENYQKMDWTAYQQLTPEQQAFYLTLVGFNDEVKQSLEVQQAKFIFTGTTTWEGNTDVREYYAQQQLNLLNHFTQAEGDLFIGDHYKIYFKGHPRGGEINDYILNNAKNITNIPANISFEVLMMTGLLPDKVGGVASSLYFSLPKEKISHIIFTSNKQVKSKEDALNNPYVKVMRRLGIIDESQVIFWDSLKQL
Chain of hNEU2 (Q9Y3R4 whole entry): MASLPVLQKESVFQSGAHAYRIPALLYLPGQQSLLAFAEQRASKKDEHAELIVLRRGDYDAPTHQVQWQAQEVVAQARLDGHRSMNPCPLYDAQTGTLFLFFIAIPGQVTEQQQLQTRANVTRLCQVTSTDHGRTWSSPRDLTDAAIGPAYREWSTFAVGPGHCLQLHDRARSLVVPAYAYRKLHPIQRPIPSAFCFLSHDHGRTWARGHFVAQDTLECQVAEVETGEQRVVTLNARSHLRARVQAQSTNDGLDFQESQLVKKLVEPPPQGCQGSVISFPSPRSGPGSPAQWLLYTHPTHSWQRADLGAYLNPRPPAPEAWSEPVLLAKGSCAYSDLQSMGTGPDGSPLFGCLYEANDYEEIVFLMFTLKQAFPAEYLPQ

As a reminder, the inhibition is the relative decrease from the control value, in per cent. Take `CC(=O)N[C@H]1[C@H]2O[C@@](C(=O)O)(C[C@@H]1O)O[C@@H]2[C@H](O)CO` [2-1, 5-Acetamido-2,7-anhydro-3,5-dideoxy-α-D-glycero-D-galacto-non-2-ulopyranosonic acid]: the inhibition at 1000 µM was found to be 4.6 ± 1.1% on hNEU2; 49.4 ± 1.3% at AuSialidase; 3 ± 1.9% at SpNanC; 10.2 ± 2.8% at PmST1; 22.7 ± 1.2% at VcSialidase; 36.4 ± 0.1% at SpNanA. Besides, the inhibition at 1000 µM on BiNanH2 amounted to 6.6 ± 1.8%; at SpNanB [2] it was 30 ± 1.7%. Moreover, on SpNanB [1], the “Conversion to Neu5Ac by SpNanB, estimated yield based on TLC” value is given as 80%. In the test on CpNanI, the “Percentage inhibition (%) against CpNanI” value came to 26.7 ± 3.7%.
